Assay results as given in patent EP2695950A1, “Markers for responsiveness to an inhibitor of the fibroblast growth factor receptor” (Blackfield AG, priority 2012, dated 2014).
Read-outs that look alike come from different tables or passages of the source.

What was measured:
[1] = system: Tumors derived from NIH3T3 cells expressing EML4-Alk; experiment: Xenograft mouse model, tumor volume; format: in vivo, mice; settings: Figure 6; EML4-Alk (positive control)
[2] = system: Tumors derived from NIH3T3 cells expressing only FGFR1; experiment: Xenograft mouse model, tumor volume; format: in vivo, mice
Description: (§1) All animal procedures were approved by the local animal protection committee and the local authorities. Xenograft-experiments were performed in 10 to 15 week old male athymic NMRI-nude-mice (Janvier, Europe). Mice were hold in a 12 hour light-dark-cycle. They got water and standard food ad libitium.
(§2) NIH3T3-cells transduced with empty Vector (puro), empty Vector (puro+zeo), KRAS G12V, FGFR1-α, FGFR1-β, FGFR1-β + cMyc were cultured as described before. For implantation they were resuspended in plain RPMI in a concentration of 50*10^6 cells/ml. 5*10^6 cells were injected subcutaneously in mice, under 2.5% Isolflurane-anaesthesia. Tumorgrowth was monitored every 2nd day by calimetric measurement. Tumorvolumes were calculated by V= […].
(§3) Therapy was started when tumors reached a size of 100mm^3. They were treated daily by oral gavage either with 10mg/kg NVP-BGJ 398 (Novartis) dissolved in vehicle (PEG300, 5%Glucose; 2:1) or with the vehicle-detergent alone. After 8 (KRas), 12 (FGFR1-α and FGFR1-β + cMyc), days of therapy mice were sacrificed by intraperitoneal injection of Ketamin/Xylazine (300/60 mg/kg) and tumors were resected and fixed in 4% formaldehyde for histology.

[3] = system: Tumors derived from NIH3T3 cells expressing two different splice variants of FGFR1 plus Myc; experiment: Xenograft mouse model, tumor volume; format: in vivo, mice
Description: as §1, §2, §3

[4] = system: Tumors derived from NIH3T3 cells expressing KRas G12V; experiment: Xenograft mouse model, tumor volume; format: in vivo, mice; settings: Figure 3; KRas G12V (positive control); 10mg/kg daily by oral gavage
Description: as §1, §2, §3

[5] = system: FGFR1-amplified and FGFR1 non-amplified cell lines
[6] = system: H1581 cell line; settings: Figure 12; different concentrations
Description: (§4) All compounds were purchased from commercial suppliers, dissolved in DMSO, and stored at - 20°C. Cells were plated into sterile 96-- - well microtiter plates using a multichannel pipette and cultured overnight. Compounds were then added in serial dilutions. Cellular viability was determined after 96 hours of treatment by measuring cellular ATP content using the CellTiter-- Glo Assay (Promega). Plates were measured on a Mithras LB 940 Plate Reader (Berthold Technologies). GI50 values were determined using the following R package (Frommolt P, Thomas RK, 2008, Standardized high-- - throughput evaluation of cell-- - based compound screens. BMC Bioinformatics. 9:475)

[7] = system: H1581 cell line with Myc downregulated (shMyc); settings: Figure 12, different concentrations
Description: as §4

[8] = Figure 3, FGFR1 plus Myc, 10mg/kg daily by oral gavage

IC50 values ([5]; Figure 8, cell lines expressing high amounts of FGFR and Myc)	IC50 values ([5]; Figure 9, cell lines H1581 and A427, high FGFR, higher FGFR1β/FGFR1α ratio, high Myc expression)	SMILES	tumor volume [1]	tumor size ([2]; Figure 3, only FGFR1, 10mg/kg daily by oral gavage)	tumor volume ([2]; Figure 5, tumor expressing only FGFR1, treated mouse)	tumor volume ([2]; Figure 6, two different splice variants of FGFR1)	tumor disappearance [3, 8]	tumor volume [3, 8]	tumor volume ([3]; Figure 5, tumor with FGFR1 and c-myc expression, treated mouse)	tumor size [4]	response to FGFR inhibition [6]	response to FGFR inhibition [7]
–	–	CCN1CCN(c2ccc(Nc3cc(N(C)C(=O)Nc4c(Cl)c(OC)cc(OC)c4Cl)ncn3)cc2)CC1 [BGJ398]	increase in tumor volume	stable disease	did not shrink and even little grew	stable disease under treatment	disappeared within ten days of treatment	strong reduction of tumor volume	completely disappeared after ten days of treatment	strong tumor growth	–	–
lower IC50 values	lower IC50 values	CCN(CC)CCCCNc1ncc2cc(-c3cc(OC)cc(OC)c3)c(NC(=O)NC(C)(C)C)nc2n1 [PD173074]	–	–	–	–	–	–	–	–	highly sensitive/responsive	less response
